These results are taken from ChEMBL document CHEMBL1129858, “Antitumor agents. 1771. Design, syntheses, and biological evaluation of novel etoposide analogs bearing pyrrolecarboxamidino group as DNA topoisomerase II inhibitors” (1997).

Bounds are passed on as bounds.

One assay concerns NCI-H23. Put plainly: Tested for the in vitro cytotoxicity against NCI-H23 non-small cell lung cancer cell line. Format: functional, Homo sapiens.
The next assay deals with MOLT-4. Nature of the assay: Tested for the in vitro cytotoxicity against MOLT-4 leukemia cell line. Format: functional, Homo sapiens.
Assay [1] can be described thus: Average in vitro cytotoxicity was calculated from all cell lines tested,. Format: functional.
In the next assay the test system is DU-145. Put plainly: Tested for the in vitro cytotoxicity against DU-145 prostate cancer cell line. Format: functional, Homo sapiens.
Assay [2] in a line: Average in vitro cytotoxicity was calculated from all cell lines tested. The assay is classed as functional.
Another assay has as its system ACHN. Nature of the assay: Tested for the in vitro cytotoxicity against ACHN renal cancer cell line. The assay is classed as functional, Homo sapiens.
For the next assay, the system named is M14. Nature of the assay: Tested for the in vitro cytotoxicity against M-14 melanoma. Format: functional, Homo sapiens.
The next assay concerns SF-295. Nature of the assay: Tested for the in vitro cytotoxicity against SF-295 CNS tumor cell lines. Format: functional, Homo sapiens.
In a further assay the test system is OVCAR-8. Put plainly: Tested for the in vitro cytotoxicity against OVCAR-8 ovarian cancer cell lines,. The assay is classed as functional, Homo sapiens.
The next assay has as its system MCF7. Nature of the assay: Tested for the in vitro cytotoxicity against MCF-7 breast cancer cell line. The assay is classed as functional, Homo sapiens.
Assay [3] in a line: Average in vitro cytotoxicity was calculated from all cell lines tested, activity expressed as average log TGI50. Format: functional. As to conditions: read-out: Log TGI (converted).
The subject of a further assay is HCC 2998. Nature of the assay: Tested for the in vitro cytotoxicity against HCC2998 colon cancer cell lines. Format: functional, Homo sapiens.
Assay [4] relates to KB. Put plainly: Tested for the cellular protein DNA complex formation in KB cells at concentration of 25 uM. The assay is classed as functional, Homo sapiens.
Assay [5] deals with KB. Nature of the assay: Tested for the cellular protein DNA complex formation in KB cells at the concentration of 2.5 uM. Format: functional, Homo sapiens.
For assay [6], the target named is DNA topoisomerase II (Homo sapiens) (UniProt P11388+Q02880). Nature of the assay: Tested for the inhibition of DNA topoisomerase II. The assay is classed as protein assay.
For assay [7], the system named is KB. Nature of the assay: Tested for the cellular protein DNA complex formation in KB cells at the concentration of 2.5 uM.
The test system of assay [8] is KB. Put plainly: Tested for the cytotoxicity against KB cells; ID50/LD50 = 0.08/>10. Format: functional, cell-based. The conditions noted are these: Homo sapiens.
The subject of assay [9] is KB. Nature of the assay: Tested for the cytotoxicity against KB-7d cellsTested for the cytotoxicity against KB cells; ID50/LD50 = 0.2/>10. Format: functional, cell-based.
Assay [10] deals with KB. Nature of the assay: Tested for the cellular protein DNA complex formation in KB cells at concentration of 2.5 uM. Format: functional, Homo sapiens.

As a reminder, the GI50 is the concentration at which growth is held to half of that of the control. Usually LC50 stands for the concentration that kills 50% of the test population. The term TGI denotes the concentration giving total growth inhibition. Consider `COc1cc([C@@H]2c3cc4c(cc3[C@@H](NCCNCCO)[C@H]3COC(=O)[C@H]23)OCO4)cc(OC)c1O` [listing 1 of 2 here], for which the GI50 is 1320 nM with NCI-H23 (Homo sapiens, NCI-H23); < 10 nM with MOLT-4; 1350 nM in [1]; 2750 nM in the assay with DU-145 (Homo sapiens, DU-145); 2340 nM in the assay on ACHN; 3980 nM in the assay on M14 (Homo sapiens, M14). Also, the GI50 with SF-295 was 178 nM; in the assay with OVCAR-8 (Homo sapiens, OVCAR-8) it was 2630 nM; in the assay with MCF7, 38.9 nM; in the assay with HCC 2998 (Homo sapiens, HCC 2998), 1260 nM. In addition, in [2], the LC50 is 66100 nM. For the same molecule, the TGI in assay [3] is 12000 nM.
Consider `COc1cc([C@@H]2c3cc4c(cc3[C@@H](NC(=O)NO)[C@H]3COC(=O)[C@H]23)OCO4)cc(OC)c1O`, for which the GI50 with NCI-H23 (Homo sapiens, NCI-H23) was 9330 nM; with MOLT-4 (Homo sapiens, MOLT-4), 4900 nM; in [1], 9770 nM; with DU-145 (Homo sapiens, DU-145), 7240 nM; in the assay with ACHN (Homo sapiens, ACHN) it was 6030 nM; in the assay with M14 (Homo sapiens, M14), 37200 nM. In addition, the GI50 in the assay with SF-295 (Homo sapiens, SF-295) was 5010 nM; in the assay on OVCAR-8 (Homo sapiens, OVCAR-8) it was 34700 nM; with MCF7 (Homo sapiens, MCF7) it was 7760 nM; in the assay with HCC 2998 (Homo sapiens, HCC 2998), 4070 nM. Also, the LC50 in assay [2] is 100000 nM. Also, the TGI in [3] is 93300 nM.
With `COc1cc([C@@H]2c3cc4c(cc3[C@@H](O[C@@H]3O[C@@H]5CO[C@@H](C)O[C@H]5[C@H](O)[C@H]3O)[C@H]3COC(=O)[C@H]23)OCO4)cc(OC)c1O` [ETOPOSIDE], the GI50 in the assay with NCI-H23 (Homo sapiens, NCI-H23) was 8320 nM; in the assay with MOLT-4 (Homo sapiens, MOLT-4), 1020 nM; in [1], 9770 nM; in the assay on DU-145 (Homo sapiens, DU-145) it was 851 nM; with ACHN (Homo sapiens, ACHN), 871 nM; with M14 (Homo sapiens, M14) it was 813 nM. The GI50 in the assay on SF-295 (Homo sapiens, SF-295) is 10000 nM; in the assay on OVCAR-8 (Homo sapiens, OVCAR-8), 16600 nM; in the assay with MCF7 (Homo sapiens, MCF7), 4370 nM; in the assay on HCC 2998 (Homo sapiens, HCC 2998), 18200 nM. In addition, the Activity in the assay on KB [4] and in the assay with KB [5] was 100% in each case. The IC100 in [6] came out at 100 µM. For the same molecule, the TGI in assay [3] was 77600 nM.
As to `COc1cc([C@@H]2c3cc4c(cc3[C@@H](Nc3ccc(NC(=O)c5cc(NC(=O)c6cc([N+](=O)[O-])cn6C)cn5C)cc3)[C@H]3COC(=O)[C@H]23)OCO4)cc(OC)c1O`, the values for the Activity in the assay with KB [7] and in the assay with KB [4] were 30% and 26%, respectively. Also, the Cytotoxicity entry in the assay on KB [8] was “ID50/LD50 = 0.08/>10”. In addition, the concentration for 50% growth inhibition (GI50) with NCI-H23 (Homo sapiens, NCI-H23) was 724 nM; in the assay with MOLT-4 (Homo sapiens, MOLT-4), < 10 nM; in assay [1], 1170 nM; in the assay on DU-145 (Homo sapiens, DU-145) it was 372 nM; with ACHN (Homo sapiens, ACHN), 229 nM; with M14 (Homo sapiens, M14), 5500 nM. The GI50 in the assay with SF-295 (Homo sapiens, SF-295) is 4900 nM; in the assay on OVCAR-8 (Homo sapiens, OVCAR-8), 759 nM; in the assay on MCF7 (Homo sapiens, MCF7), 47.9 nM; in the assay on HCC 2998 (Homo sapiens, HCC 2998), 6030 nM. Besides, the IC100 in assay [6] is 100 µM. Besides, the LC50 in assay [2] was 81300 nM. The Ratio entry in the assay on KB [9] is given as “ID50/LD50 = 0.2/>10”. Also, the TGI in assay [3] was 28800 nM.
For the molecule `COc1cc([C@@H]2c3cc4c(cc3[C@@H](Nc3ccc(NC(=O)c5cc([N+](=O)[O-])cn5C)cc3)[C@H]3COC(=O)[C@H]23)OCO4)cc(OC)c1O` [listing 1 of 3 here], the IC100 in assay [6] worked out at 12.5 µM.
With `CNCCN[C@@H]1c2cc3c(cc2[C@@H](c2cc(OC)c(O)c(OC)c2)[C@H]2C(=O)OC[C@@H]21)OCO3`, the GI50 with NCI-H23 (Homo sapiens, NCI-H23) is 162 nM; in the assay on MOLT-4 (Homo sapiens, MOLT-4), < 10 nM; in assay [1], 240 nM; with DU-145 (Homo sapiens, DU-145) it was 363 nM; in the assay with ACHN (Homo sapiens, ACHN), 66.1 nM; with M14 (Homo sapiens, M14), 398 nM. For the same molecule, the GI50 with SF-295 (Homo sapiens, SF-295) was 29.5 nM; with OVCAR-8 (Homo sapiens, OVCAR-8), 309 nM; in the assay with MCF7 (Homo sapiens, MCF7) it was 14.4 nM; with HCC 2998 (Homo sapiens, HCC 2998) it was 269 nM. Moreover, the LC50 in [2] was 38900 nM. The TGI in [3] was 3020 nM.
Consider `COc1cc([C@@H]2c3cc4c(cc3[C@@H](Nc3ccc(NC(=O)c5cc([N+](=O)[O-])cn5C)cc3)[C@H]3COC(=O)[C@H]23)OCO4)cc(OC)c1O` [listing 2 of 3 here], for which the GI50 was 49 nM in the assay with NCI-H23 (Homo sapiens, NCI-H23); < 10 nM with MOLT-4 (Homo sapiens, MOLT-4); 123 nM in [1]; 17 nM in the assay on DU-145 (Homo sapiens, DU-145); 11.8 nM with ACHN (Homo sapiens, ACHN); 45.7 nM in the assay on M14 (Homo sapiens, M14). The GI50 in the assay on SF-295 is 51.3 nM; in the assay on OVCAR-8 (Homo sapiens, OVCAR-8), 97.7 nM; in the assay on MCF7 (Homo sapiens, MCF7) it was < 10 nM; with HCC 2998 (Homo sapiens, HCC 2998), 224 nM. Further, the Activity in the assay on KB [4] is listed as 100%; with KB [10] it was 225%. Further, the concentration for total growth inhibition (TGI) in assay [3] is 1950 nM.
Consider `COc1cc([C@@H]2c3cc4c(cc3[C@@H](Nc3ccc(NC(=O)c5cc([N+](=O)[O-])cn5C)cc3)[C@H]3COC(=O)[C@H]23)OCO4)cc(OC)c1O` [listing 3 of 3 here], for which the GI50 in the assay with NCI-H23 is 38.9 nM; in assay [1], 100 nM; in the assay with DU-145, 14.4 nM; in the assay on ACHN it was 14.1 nM; in the assay with M14, 63.1 nM; in the assay on SF-295, 138 nM. Besides, the GI50 was 126 nM in the assay on OVCAR-8 and 245 nM with HCC 2998. The concentration for total growth inhibition (TGI) in assay [3] was 525 nM.
For the molecule `COc1cc([C@@H]2c3cc4c(cc3[C@@H](NCCNCCO)[C@H]3COC(=O)[C@H]23)OCO4)cc(OC)c1O` [listing 2 of 2 here], the GI50 is 661 nM in the assay on NCI-H23; 26.9 nM in the assay on MOLT-4; 1860 nM in [1]; 2290 nM with DU-145; 339 nM with ACHN; 4070 nM in the assay with M14. Besides, the GI50 with SF-295 was 1020 nM; in the assay on OVCAR-8, 2400 nM; in the assay with MCF7, 95.5 nM; with HCC 2998, 3390 nM. In [2], the LC50 was 83200 nM. In addition, the TGI in assay [3] is 21400 nM.
